Consider six compounds from PMC9441481, “Risk assessment and molecular mechanism study of drug-drug interactions between rivaroxaban and tyrosine kinase inhibitors mediated by CYP2J2/3A4 and BCRP/P-gp” (Frontiers in Pharmacology, 2022).

Entries after “also recorded” stand apart in the source; their conditions may differ. Where two headings read alike, the source gives them in different places.

The test system of data set [1] is rivaroxaban metabolism in HLM. The experiment in a line: Inhibition of rivaroxaban metabolism in HLM incubation. The format is in vitro ADME. As to conditions: human, pooled human liver microsomes, probe rivaroxaban (concentration chosen from Km, 22.81 μM for HLM), HLM 0.3 mg/mL, main metabolite formation, five independent experiments, read-out: IC50 of TKI inhibition of rivaroxaban metabolism, HLM.
Method: The formation of the main metabolite of rivaroxaban in the CYP inhibition assays was quantitatively determined using HPLC. The mobile phase consisted of 60% methanol (A pump) and 40% pure water with 0.2% formic acid (B pump) with isocratic elution.
The inhibitory effect of the TKIs on the metabolism of rivaroxaban in recombined P450 isoforms and HLM incubations was compared by quantifiably detecting the production of the major metabolite using HPLC. The concentrations of HLM, CYP2J2, and CYP3A4 were 0.3, 0.4, and 0.6 mg mL^−1, respectively. […] Briefly, after 5-min preincubation of potential inhibitors with isoforms, NADPH was added to initiate the reaction. The reaction mixture was incubated at 37°C for 60 min, and ice acetonitrile was used for terminating the reaction. The ratio of major metabolite production of rivaroxaban in the TKI incubation group to that obtained in the control group represents the inhibitory activity.
To explore the inhibitory effects of the three TKIs on rivaroxaban metabolism, three concentrations of TKIs (1, 10, and 100 μM) were used to perform the in vitro enzyme incubations. The ratio of the rivaroxaban main metabolite formation in the incubation with the TKIs to that without inhibitors represented the inhibitory activity.
The IC50 values were obtained by nonlinear fitting of the TKI concentration and the remaining enzyme activity.

The next data set has as its system CYP2J2 and CYP3A4. The following applies: predicted increase in rivaroxaban exposure from CYP2J2 and CYP3A4 inhibition. From the text: Kinetic constants were included in the mechanistic static model to explore reversible inhibition and the TDI. […] In the present study, this model was designed to explore the contributions of enzyme inhibition in the prediction of DDI risk. The area under the curve ratio (AUC ratio/AUCR) in the presence of a pharmacokinetic DDI was used as the index, as described by Eq. 2.

For data set [2] the following is noted: patients with solid tumors; ref Gschwind et al. (2005), Sparano et al. (2009), Di Gion et al. (2011), Scheffler et al. (2011); read-out: I (Cmax of patients with solid tumors); cited from earlier work.
The next data set addresses recombinant human CYP3A4 (Homo sapiens, UniProt P08684). Also on record: method as in Zhao et al., 2022. The following applies: ref Zhao et al., 2022, cited from earlier work.
Data set [3] concerns the target T1, P-gp (Homo sapiens, UniProt P08183). The experiment in a line: Bidirectional transport of rivaroxaban, MDR1-MDCK vs mock-MDCK. As to the method:
(§1) The LC-MS/MS method was used to quantitatively determine rivaroxaban for cell and animal experiments. LC-MS/MS analysis was performed using an API 3200 triple-quadrupole mass spectrometer (Applied Biosystems, Concord, Ontario, Canada) and an Agilent LC system Agilent HP1200 (Agilent Technology Inc. CA, United States). The column was a Hypersil ODS-BP column (150 mm × 2.1 mm, 5 μm; Dalian Elite Analytical Instruments Co. Ltd. China). […] The flow rate of the mobile phase was 0.4 ml/min. The mobile phase contained acetonitrile and water with 0.2% (v/v) formic acid at 65:35 (v/v) for rivaroxaban in cell experiments. The determination of rivaroxaban in the blood was achieved by gradient elution methods with a mobile phase of acetonitrile (A) and pure water with 10 mM ammonium acetate (B).
(§2) Mock-MDCK, MDR1-MDCK, and ABCG2-MDCK cells were seeded in 24-well transwell inserts (0.33 cm^2, 0.4 μm) at a density of 2.5 × 10^5 cells/ml, and cells were allowed to culture for 3–5 days to form cell monolayers. The Millicell-ERS system was used to measure the TEER (Trans Epithelial Electric Resistance) values of the monolayers. […] Briefly, the monolayer was washed gently using 37°C HBSS (pH 7.4) and preincubated with HBSS for 10 min at 37°C. Then, various concentrations of TKIs were added to the HBSS on either the basolateral (total volume of 800 μl) or apical (total volume of 200 μl) side of the monolayers, and the cells in the transwell inserts were allowed to further incubate at 37°C for 2 h. At last, a 100-μl solution was taken from the other side for quantitative analysis by LC-MS/MS.
(§3) All pharmacokinetic parameters in the present study were analyzed using the Drug and Statistics software (DAS 2.0, Windows). In the bidirectional experiments, the apparent permeability values (Papp), efflux ratio (ER), and net flux ratio were calculated by Eqs. […] The transport of rivaroxaban was assessed to determine apparent Michaelis–Menten constants (Km,app). […] AP is transported from the apical to the basolateral side, and BL is transported from the basolateral to the apical side. Net flux ratiomax is the maximal effect, C is the concentration of rivaroxaban, and h is the Hill coefficient of the sigmoid model.

A further data set concerns the target T2, BCRP (Homo sapiens, UniProt Q9UNQ0).
T2 sequence (Q9UNQ0 1-655): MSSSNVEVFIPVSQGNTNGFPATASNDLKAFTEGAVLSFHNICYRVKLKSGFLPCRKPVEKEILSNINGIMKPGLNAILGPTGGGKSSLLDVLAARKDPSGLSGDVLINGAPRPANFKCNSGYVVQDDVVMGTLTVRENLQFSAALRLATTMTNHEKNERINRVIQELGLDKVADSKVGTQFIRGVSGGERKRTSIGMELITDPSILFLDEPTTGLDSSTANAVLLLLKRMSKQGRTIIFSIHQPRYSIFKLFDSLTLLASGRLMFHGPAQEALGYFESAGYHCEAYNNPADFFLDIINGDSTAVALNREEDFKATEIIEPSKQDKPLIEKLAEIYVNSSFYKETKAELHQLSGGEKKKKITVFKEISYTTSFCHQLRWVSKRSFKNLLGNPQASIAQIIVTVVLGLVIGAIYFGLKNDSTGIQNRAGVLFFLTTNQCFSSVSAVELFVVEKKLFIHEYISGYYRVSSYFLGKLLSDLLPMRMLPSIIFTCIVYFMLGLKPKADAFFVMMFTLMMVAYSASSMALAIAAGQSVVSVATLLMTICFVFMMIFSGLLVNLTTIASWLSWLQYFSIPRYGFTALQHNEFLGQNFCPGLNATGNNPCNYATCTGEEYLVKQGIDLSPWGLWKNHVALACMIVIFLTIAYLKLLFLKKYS
The experiment in a line: Bidirectional transport of rivaroxaban, ABCG2-MDCK vs mock-MDCK. As to the method: as §1, §2, §3

Another data set addresses T3, recombinant human CYP2J2 (Homo sapiens, UniProt P51589).
T3 sequence (P51589 1-502): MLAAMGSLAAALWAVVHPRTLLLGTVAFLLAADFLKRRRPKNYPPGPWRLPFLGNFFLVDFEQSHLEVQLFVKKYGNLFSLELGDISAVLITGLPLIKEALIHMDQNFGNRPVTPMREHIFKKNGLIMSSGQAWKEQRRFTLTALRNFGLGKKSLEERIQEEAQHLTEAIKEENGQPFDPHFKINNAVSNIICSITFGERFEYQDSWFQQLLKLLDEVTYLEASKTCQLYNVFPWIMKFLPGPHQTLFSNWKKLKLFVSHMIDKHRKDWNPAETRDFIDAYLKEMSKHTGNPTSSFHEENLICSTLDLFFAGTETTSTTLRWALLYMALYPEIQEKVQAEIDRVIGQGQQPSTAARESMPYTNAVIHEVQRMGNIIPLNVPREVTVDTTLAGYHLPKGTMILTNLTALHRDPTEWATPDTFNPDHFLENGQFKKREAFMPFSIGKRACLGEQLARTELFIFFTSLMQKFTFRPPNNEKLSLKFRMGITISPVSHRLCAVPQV
Also on record: method as in Zhao et al., 2022. As to conditions: ref Zhao et al., 2022, cited from earlier work.

A short description of data set [4]: Rivaroxaban pharmacokinetics in rats, oral administration with or without TKIs. The format is in vivo, Wistar rats. As to the method:
as §1
(§4) To further investigate the DDI risk between rivaroxaban and the TKIs, the pharmacokinetic parameters were measured in Wistar rats (male, 160–200 g). The experiments were reviewed and approved by the Experimental Animal Centre of Dalian Medical University. […] All rats had free access to food and water and were fed adaptively for 7 days. […] Thirty-six rats were divided into six groups randomly. […] After centrifugation, the plasma proteins were precipitated using acetonitrile, followed by vortexing and centrifugation.
as §3

On the set-up of data set [5]: method as in Mueck et al., 2013. The following applies: ref Mueck et al., 2013; cited from earlier work.
The subject of data set [6] is pooled human liver microsomes (HLM). Also on record: method as in Zhao et al., 2022. As to conditions: ref Zhao et al., 2022; read-out: Km of rivaroxaban metabolism, HLM; cited from earlier work.
Data set [7] in a line: Rivaroxaban pharmacokinetics in rats, intravenous administration with or without imatinib. The format is in vivo. The following applies: male, Wistar, rat, plasma, 0.4 mg/kg, i.v. As to the method:
as §1, §4, §3

Details of data set [8]: method as in Chong et al., 2020. As to conditions: rats; ref Chong et al., 2020; cited from earlier work.
For data set [9], the target named is T1, P-gp. As to conditions: MDR1-MDCK cells, TKI 5 μM.
Method: Mock-MDCK and MDR1-MDCK cells were seeded in six-well plates and grown to 80% confluency.
Details of data set [10]: method as in Zheng et al., 2019. As to conditions: ref Zheng et al., 2019; cited from earlier work.
The mark [11] stands for this setting: male, Wistar, rat, plasma, po, rivaroxaban 2.1 mg/kg, n = 5.

T1 sequence (P08183 whole entry): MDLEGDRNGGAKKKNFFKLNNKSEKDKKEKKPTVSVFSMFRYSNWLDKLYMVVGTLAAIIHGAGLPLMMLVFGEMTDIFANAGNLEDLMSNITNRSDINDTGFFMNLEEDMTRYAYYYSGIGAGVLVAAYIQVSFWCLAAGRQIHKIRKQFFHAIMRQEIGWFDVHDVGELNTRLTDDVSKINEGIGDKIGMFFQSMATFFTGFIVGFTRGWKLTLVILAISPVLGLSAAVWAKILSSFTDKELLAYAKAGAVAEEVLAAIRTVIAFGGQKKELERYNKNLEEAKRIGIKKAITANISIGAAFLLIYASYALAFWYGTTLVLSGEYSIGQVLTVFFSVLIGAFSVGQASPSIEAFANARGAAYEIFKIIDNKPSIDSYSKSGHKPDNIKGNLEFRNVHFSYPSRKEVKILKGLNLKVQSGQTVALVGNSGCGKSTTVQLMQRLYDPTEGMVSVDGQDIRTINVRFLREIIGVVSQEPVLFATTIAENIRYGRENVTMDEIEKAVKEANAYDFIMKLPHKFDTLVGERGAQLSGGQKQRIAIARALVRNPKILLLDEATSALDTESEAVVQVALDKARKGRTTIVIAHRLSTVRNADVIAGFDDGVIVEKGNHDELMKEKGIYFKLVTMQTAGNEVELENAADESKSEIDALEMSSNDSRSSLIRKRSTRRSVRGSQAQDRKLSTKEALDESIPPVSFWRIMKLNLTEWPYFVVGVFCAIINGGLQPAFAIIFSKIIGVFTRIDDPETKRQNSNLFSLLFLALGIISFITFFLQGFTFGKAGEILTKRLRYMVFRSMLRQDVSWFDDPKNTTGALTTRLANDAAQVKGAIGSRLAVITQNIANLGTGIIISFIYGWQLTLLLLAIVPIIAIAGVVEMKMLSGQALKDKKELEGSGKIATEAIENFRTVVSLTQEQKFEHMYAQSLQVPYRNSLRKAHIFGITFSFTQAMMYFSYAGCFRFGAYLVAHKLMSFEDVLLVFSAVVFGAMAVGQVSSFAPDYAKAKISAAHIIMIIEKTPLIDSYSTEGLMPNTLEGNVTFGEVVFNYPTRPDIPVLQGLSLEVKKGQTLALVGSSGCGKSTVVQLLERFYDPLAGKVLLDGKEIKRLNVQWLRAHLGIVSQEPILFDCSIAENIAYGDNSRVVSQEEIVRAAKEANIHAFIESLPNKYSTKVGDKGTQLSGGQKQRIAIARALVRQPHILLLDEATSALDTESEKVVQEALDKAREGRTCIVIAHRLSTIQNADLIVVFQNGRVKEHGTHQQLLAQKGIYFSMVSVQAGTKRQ
recombinant human CYP3A4, sequence (P08684 whole entry): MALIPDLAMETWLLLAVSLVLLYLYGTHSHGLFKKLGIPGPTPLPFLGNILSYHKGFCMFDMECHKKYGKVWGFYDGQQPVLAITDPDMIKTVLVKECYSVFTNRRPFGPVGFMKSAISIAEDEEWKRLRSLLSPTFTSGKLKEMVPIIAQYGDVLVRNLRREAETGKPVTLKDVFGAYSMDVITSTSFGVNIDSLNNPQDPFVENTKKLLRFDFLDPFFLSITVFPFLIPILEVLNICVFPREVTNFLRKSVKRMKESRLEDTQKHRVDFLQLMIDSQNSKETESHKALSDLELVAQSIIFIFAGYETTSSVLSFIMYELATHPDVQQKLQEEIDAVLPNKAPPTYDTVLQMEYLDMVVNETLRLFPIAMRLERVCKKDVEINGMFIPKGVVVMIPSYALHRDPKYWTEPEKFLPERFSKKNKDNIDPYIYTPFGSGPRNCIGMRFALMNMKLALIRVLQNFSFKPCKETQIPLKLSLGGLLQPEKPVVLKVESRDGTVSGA

For `CCN(CC)CCNC(=O)c1c(C)[nH]c(/C=C2\C(=O)Nc3ccc(F)cc32)c1C` [Sunitinib], in [1], the concentration for half-maximal inhibition (IC50) at 60 min amounted to 84.2 ± 7.34 µM. For the same compound, the “AUC increase (%)” value was 2% in the data set on CYP2J2 and CYP3A4; “not to cause a significant change” in the data set with CYP2J2 and CYP3A4 (listed as sunitinib). Besides, the Cmax in data set [2] was 63 to 69.5 nM.
Consider `O=C(NC[C@H]1CN(c2ccc(N3CCOCC3=O)cc2)C(=O)O1)c1ccc(Cl)s1` [Rivaroxaban], for which, on recombinant human CYP3A4 (input of static model), the “fraction of rivaroxaban metabolized by CYP3A4” value was 0.025. The Michaelis-Menten constant (Km) on recombinant human CYP3A4 (read-out: Km of rivaroxaban metabolism, CYP3A4) was 47 µM; on recombinant human CYP2J2 (read-out: Km of rivaroxaban metabolism, CYP2J2) it was 19.4 µM; in data set [6] it was 22.8 µM. The “Net flux ratio max, P-gp” value at P-gp [3] (MDR1-MDCK cells) came out at 10.300 fold. Moreover, the Km at 2 h at P-gp [3] (human, MDCK, pH 7.4) amounted to 8.42 µM; on BCRP (human, pH 7.4), 3.46 µM. Also, the “net flux ratio, transportation mediated by P-gp” value at P-gp [3] (substrate identification) is reported as “more than 2 folds”. Further, the “Net flux ratio max, BCRP” value on BCRP (ABCG2-MDCK cells) came out at 4.868 fold. Also, on BCRP (substrate identification), the “net flux ratio, transportation mediated by BCRP” value is “more than 2 folds”. The “fraction of rivaroxaban metabolized by CYP2J2” value at recombinant human CYP2J2 (input of static model) was 0.95. In addition, the “catalytic efficiency of CYP2J2 relative to CYP3A4” value on recombinant human CYP2J2 is recorded as “approximately 39 fold”. For the same compound, the exposure AUC(0-t) in data set [4] (setting [11]) amounted to 1550 ± 268 ng·h/mL; in [7] (n = 5) it was 4650 ± 446 ng·h/mL. Further, the values for the Cmax in [4] (setting [11]) and in [7] (n = 5) were 130 ± 22.7 ng/mL and 3940 ± 780 ng/mL, respectively. Further, the time to peak (Tmax) in data set [4] (setting [11]) stood at 4 h. For the same compound, the “dose eliminated via hydrolysis of the amide bonds” value in data set [5] is given as “approximately 14%”. In addition, the clearance in [7] (n = 5, read-out: CL of rivaroxaban (converted)) was 1.38 mL/min/kg. Moreover, in [7] (n = 5, read-out: t1/2 of rivaroxaban (converted)), the half-life is 2.44 ± 0.757 h.
`CCCSc1nc(N[C@@H]2C[C@H]2c2ccc(F)c(F)c2)c2nnn([C@@H]3C[C@H](OCCO)[C@@H](O)[C@H]3O)c2n1` [ticagrelor]: the “increase of the AUC of rivaroxaban” value in data set [8] is given as “two folds”.
For the compound `Cc1ccc(NC(=O)c2ccc(CN3CCN(C)CC3)cc2)cc1Nc1nccc(-c2cccnc2)n1` [Imatinib], the inhibition at 2 h against P-gp [3] (human, pH 7.4) was ~20%. Besides, at P-gp [9], the “intracellular fluorescence intensity of rhodamine 123 (fluorescence imaging)” value is “significantly increased”. The inhibition at 2 h, 5 µM against BCRP (human, pH 7.4) is > 50%. Also, the IC50 at 60 min in [1] stood at 1.7 ± 0.119 µM. Besides, the maximum concentration (Cmax) in data set [2] was 4170 to 9280 nM.
As for `CCOC(=O)[C@H](CCc1ccccc1)N[C@@H](C)C(=O)N1CCC[C@H]1C(=O)O` [enalapril], in data set [10], the “increase of the AUC value of rivaroxaban” value is given as 20% and the “increase of the Cmax value of rivaroxaban” value is 20%.
As for `COc1cc2ncnc(Nc3ccc(F)c(Cl)c3)c2cc1OCCCN1CCOCC1` [Gefitinib], the “intracellular fluorescence intensity of rhodamine 123 (fluorescence imaging)” value on P-gp [9] is “slight increase”. Also, the “AUC increase (%)” value in the data set on CYP2J2 and CYP3A4 is 6–11%; in the data set with CYP2J2 and CYP3A4 (listed as gefitinib) it was “not to cause a significant change”. In addition, in [4] (p.o.), the “effect on rivaroxaban exposure / pharmacokinetics in vivo” value is “almost did not affect; also recorded: did not show obvious changes”. Moreover, the Cmax in [2] is 190 to 356 nM.
